Where a name gives a salt, the structure may show the parent alone.
What was measured:
Assay type in all cases: in vivo
[1] = tested on: corn planthopper (Peregrinus maidis); experiment: Test D: control of corn planthopper on maize plant, contact and/or systemic; settings: 144 h, assessed after 6 days, read-out: control efficacy: mortality; for mortality at 10 ppm: sprayed at 10 ppm; for mortality at 50 ppm: sprayed at 50 ppm; for mortality at 250 ppm: sprayed at 250 ppm; for mortality at 2 ppm: sprayed at 2 ppm
Procedure: For evaluating control of corn planthopper (Peregrinus maidis) through contact and/or systemic means, the test unit consisted of a small open container with a 3-4-day-old maize plant (spike) inside. White sand was added to the top of the soil prior to application. Test compounds were formulated and sprayed at 250, 50, 10 and/or 2 ppm, and replicated three times as described for Test A. After spraying, the test units were allowed to dry for 1 h before they were post-infested with ˜15-20 nymphs (18 to 21 day old) by sprinkling them onto the sand with a salt shaker. A black, screened cap was placed on the top of each test unit, and the test units were held for 6 days in a growth chamber at 22-24° C. and 50-70% relative humidity. Each test unit was then visually assessed for insect mortality.

[2] = tested on: potato leafhopper (Empoasca fabae); experiment: Test E: control of potato leafhopper on Soleil bean plant, contact and/or systemic; settings: 144 h, assessed after 6 days, read-out: control efficacy: mortality; for mortality at 10 ppm: sprayed at 10 ppm; for mortality at 50 ppm: sprayed at 50 ppm; for mortality at 2 ppm: sprayed at 2 ppm
Procedure: For evaluating control of potato leafhopper (Empoasca fabae) through contact and/or systemic means, the test unit consisted of a small open container with a 5-6-day-old Soleil bean plant (primary leaves emerged) inside. White sand was added to the top of the soil and one of the primary leaves was excised prior to application.
Test compounds were formulated and sprayed at 250, 50, 10 and/or 2 ppm, and the tests were replicated three times as described for Test A. After spraying, the test units were allowed to dry for 1 h before they were post-infested with 5 potato leafhoppers (18-21-day-old adults). A black, screened cap was placed on the top of each test unit, and the test units were held for 6 days in a growth chamber at 24° C. and 70% relative humidity. Each test unit was then visually assessed for insect mortality.

[3] = tested on: rice brown planthopper (Nilaparvata lugens); experiment: Test H: control of rice brown planthopper on rice plant; settings: 120 h, assessed after 5 days, read-out: control efficacy: mortality; for mortality at 10 ppm: sprayed at 10 ppm; for mortality at 2 ppm: sprayed at 2 ppm
Procedure: (§1) For evaluating control of rice brown planthopper (Nilaparvata lugens) through contact and/or systemic means, the test unit consisted of a plastic pot containing a 13-cm-tall rice plant covered with steel wire mesh (50 mesh) supported by a wire frame. A small amount of sand was added to form a good seal between the bottom of the wire mesh, the soil surface and the top edge of the plastic pot.
(§2) Test compounds were formulated and sprayed at 10, 2 and/or 0.4 ppm, and the tests were replicated three times in a manner similar to the one described for Test A. After spraying, the test units were allowed to dry for 2 h before they were post-infested with 10 brown planthoppers (3rd instar nymphs, 7-9 days post-hatch). After 5 days, each test unit was visually assessed for insect mortality.

[4] = tested on: rice green leafhopper (Nephotettix virescens); experiment: Test G: control of rice green leafhopper on rice plant; settings: 120 h, assessed after 5 days, read-out: control efficacy: mortality; for mortality at 10 ppm: sprayed at 10 ppm; for mortality at 50 ppm: sprayed at 50 ppm
Procedure: as §1, with “green leafhopper (Nephotettix virescens)” for “brown planthopper (Nilaparvata lugens)”
as §2, with “50, 10 and/or” for “10,”, “2” for “2 and/or 0.4”, “green leafhoppers” for “brown planthoppers”

[5] = tested on: cotton melon aphid (Aphis gossypii); experiment: Test C: control of cotton melon aphid on cotton plant, contact and/or systemic; settings: for mortality at 50 ppm: sprayed at 50 ppm
Source text: For evaluating control of cotton melon aphid (Aphis gossypii) through contact and/or systemic means, the test unit consisted of a small open container with a 6-7-day-old cotton plant inside. This was pre-infested with 30-40 insects on a piece of leaf according to the cut-leaf method described for Test B, and the soil of the test unit was covered with a layer of sand.
Test compounds were formulated and sprayed at 250 and/or 50 ppm as described for Test B. The applications were replicated three times. After spraying, the test units were maintained in a growth chamber and then visually rated as described for […].

[6] = tested on: green peach aphid (Myzus persicae); experiment: Test B: control of green peach aphid on radish plant, contact and/or systemic; settings: 144 h, assessed after 6 days; for mortality at 50 ppm: sprayed at 50 ppm
Source text: For evaluating control of green peach aphid (Myzus persicae) through contact and/or systemic means, the test unit consisted of a small open container with a 12-15-day-old radish plant inside. This was pre-infested by placing on a leaf of the test plant 30-40 aphids on a piece of leaf excised from a culture plant (cut-leaf method). The aphids moved onto the test plant as the leaf piece desiccated. After pre-infestation, the soil of the test unit was covered with a layer of sand.
Test compounds were formulated and sprayed at 250, 50 and/or 10 ppm as described for Test A. The applications were replicated three times. After spraying of the formulated test compound, each test unit was allowed to dry for 1 h and then a black, screened cap was placed on top. The test units were held for 6 days in a growth chamber at 19-21° C. and 50-70% relative humidity. Each test unit was then visually assessed for insect mortality.

O=c1c(-c2cc(Cl)c(F)c(Cl)c2)c([O-])[n+](Cc2cncnc2)c2ccccn12 [Compound 17, 3-(3,5-dichloro-4-fluorophenyl)-2-hydroxy-4-oxo-1-(5-pyrimidinylmethyl)-4H-pyrido[1,2-a]pyrimidinium inner salt]
≥ 80%: mortality at 10 ppm [1] | mortality at 50 ppm [1]

O=c1c(-c2ccccc2F)c([O-])[n+](Cc2cncnc2)c2ccccn12 [Compound 9, 3-(2-fluorophenyl)-2-hydroxy-4-oxo-1-(5-pyrimidinylmethyl)-4H-pyrido[1,2-a]pyrimidinium inner salt]
≥ 80%: mortality at 50 ppm [1] | mortality at 10 ppm [2] | mortality at 50 ppm [2] | mortality at 10 ppm [3]

Cc1cccc(-c2c([O-])[n+](Cc3cncnc3)c3ccccn3c2=O)c1 [Compound 11, 2-hydroxy-3-(3-methylphenyl)-4-oxo-1-(5-pyrimidinylmethyl)-4H-pyrido[1,2-a]pyrimidinium inner salt]
≥ 80%: mortality at 10 ppm [1] | mortality at 50 ppm [1] | mortality at 10 ppm [2] | mortality at 50 ppm [2] | mortality at 10 ppm [4] | mortality at 50 ppm [4] | mortality at 10 ppm [3]

O=c1c(-c2ccc(F)cc2F)c([O-])[n+](Cc2cncnc2)c2ccccn12 [Compound 6, 3-(2,4-difluorophenyl)-2-hydroxy-4-oxo-1-(5-pyrimidinylmethyl)-4H-pyrido[1,2-a]pyrimidinium inner salt]
≥ 80%: mortality at 10 ppm [2] | mortality at 50 ppm [2]

Cc1cc(-c2ccc(C#N)cc2C)cc(-c2c([O-])[n+](Cc3cncnc3)c3ccccn3c2=O)c1 [Compound 18, 3-(4′-cyano-5,2′-dimethyl[1,1′-biphenyl]-3-yl)-2-hydroxy-4-oxo-1-(5-pyrimidinylmethyl)-4H-pyrido[1,2-a]pyrimidinium inner salt]
≥ 80%: mortality at 50 ppm [1] | mortality at 50 ppm [2]

O=c1c(-c2ccc(F)c(C(F)(F)F)c2)c([O-])[n+](Cc2cncnc2)c2ccccn12 [Compound 12, 3-[4-fluoro-3-(trifluoromethyl)phenyl]-2-hydroxy-4-oxo-1-(5-pyrimidinylmethyl)-4H-pyrido[1,2-a]pyrimidinium inner salt]
≥ 80%: mortality at 50 ppm [5] | mortality at 10 ppm [1] | mortality at 50 ppm [1] | mortality at 10 ppm [2] | mortality at 50 ppm [2] | mortality at 50 ppm [4] | mortality at 10 ppm [3]

O=c1c(-c2cccc(OC(F)(F)F)c2)c([O-])[n+](Cc2cncnc2)c2ccccn12 [Compound 7, 2-hydroxy-4-oxo-1-(5-pyrimidinylmethyl)-3-[3-(trifluoromethoxy)phenyl]-4H-pyrido[1,2-a]pyrimidinium inner salt]
≥ 80%: mortality at 50 ppm [5] | mortality at 2 ppm [2] | mortality at 10 ppm [2] | mortality at 50 ppm [2] | mortality at 2 ppm ([4]; sprayed at 2 ppm) | mortality at 10 ppm [4] | mortality at 50 ppm [4] | mortality at 0.4 ppm ([3]; sprayed at 0.4 ppm) | mortality at 2 ppm [3] | mortality at 10 ppm [3]

O=c1c(-c2cc(Cl)cc(Cl)c2)c([O-])[n+](Cc2cncnc2)c2ccccn12 [Compound 16, 3-(3,5-dichlorophenyl)-2-hydroxy-4-oxo-1-(5-pyrimidinylmethyl)-4H-pyrido[1,2-a]pyrimidinium inner salt]
≥ 80%: mortality at 50 ppm [6] | mortality at 10 ppm [1] | mortality at 50 ppm [1]

O=c1c(-c2ccccc2)c([O-])[n+](Cc2cncnc2)c2ccccn12 [Compound 1, 2-hydroxy-4-oxo-3-phenyl-1-(5-pyrimidinylmethyl)-4H-pyrido[1,2-a]pyrimidinium inner salt]
≥ 80%: mortality at 50 ppm [6] | mortality at 250 ppm ([6]; sprayed at 250 ppm) | mortality at 250 ppm ([5]; sprayed at 250 ppm) | mortality at 10 ppm [1] | mortality at 50 ppm [1] | mortality at 250 ppm [1] | mortality at 2 ppm [2] | mortality at 10 ppm [2] | mortality at 50 ppm [2] | mortality at 250 ppm ([2]; sprayed at 250 ppm)

COc1cccc(-c2c([O-])[n+](Cc3cncnc3)c3ccccn3c2=O)c1 [Compound 5, 2-hydroxy-3-(3-methoxyphenyl)-4-oxo-1-(5-pyrimidinylmethyl)-4H-pyrido[1,2-a]pyrimidinium inner salt]
≥ 80%: mortality at 10 ppm [1] | mortality at 50 ppm [1] | mortality at 10 ppm [2] | mortality at 50 ppm [2]

O=c1c(-c2cc(C(F)(F)F)ccc2F)c([O-])[n+](Cc2cncnc2)c2ccccn12 [Compound 10, 3-[2-fluoro-5-(trifluoromethyl)phenyl]-2-hydroxy-4-oxo-1-(5-pyrimidinylmethyl)-4H-pyrido[1,2-a]pyrimidinium inner salt]
≥ 80%: mortality at 10 ppm [1] | mortality at 50 ppm [1] | mortality at 250 ppm [1] | mortality at 50 ppm [2] | mortality at 10 ppm [4] | mortality at 50 ppm [4] | mortality at 2 ppm [3] | mortality at 10 ppm [3]

O=c1c(-c2ccc(F)cc2)c([O-])[n+](Cc2cncnc2)c2ccccn12 [Compound 2, 3-(4-fluorophenyl)-2-hydroxy-4-oxo-1-(5-pyrimidinylmethyl)-4H-pyrido[1,2-a]pyrimidinium inner salt]
≥ 80%: mortality at 2 ppm [1] | mortality at 10 ppm [1] | mortality at 50 ppm [1] | mortality at 250 ppm [1] | mortality at 10 ppm [2] | mortality at 50 ppm [2] | mortality at 10 ppm [4] | mortality at 50 ppm [4] | mortality at 2 ppm [3] | mortality at 10 ppm [3]

COc1ccccc1-c1c([O-])[n+](Cc2cncnc2)c2ccccn2c1=O [Compound 4, 2-hydroxy-3-(2-methoxyphenyl)-4-oxo-1-(5-pyrimidinylmethyl)-4H-pyrido[1,2-a]pyrimidinium inner salt]
≥ 80%: mortality at 50 ppm [1] | mortality at 50 ppm [2]

O=c1c(-c2cccc(Br)c2)c([O-])[n+](Cc2cncnc2)c2ccccn12 [Compound 8]
≥ 80%: mortality at 50 ppm [2]

O=c1c(-c2cc(Cl)cc(C(F)(F)F)c2)c([O-])[n+](Cc2cncnc2)c2ccccn12 [Compound 15, 3-[3-chloro-5-(trifluoromethyl)phenyl]-2-hydroxy-4-oxo-1-(5-pyrimidinylmethyl)-4H-pyrido[1,2-a]pyrimidinium inner salt]
≥ 80%: mortality at 10 ppm ([6]; sprayed at 10 ppm) | mortality at 50 ppm [6] | mortality at 2 ppm [1] | mortality at 10 ppm [1] | mortality at 50 ppm [1] | mortality at 2 ppm [2] | mortality at 10 ppm [2] | mortality at 50 ppm [2] | mortality at 10 ppm [3]

O=c1c(-c2cccc(Cl)c2)c([O-])[n+](Cc2cncnc2)c2ccccn12 [Compound 19, 3-(3-chlorophenyl)-2-hydroxy-4-oxo-1-(5-pyrimidinylmethyl)-4H-pyrido[1,2-a]pyrimidinium inner salt]
≥ 80%: mortality at 50 ppm [6] | mortality at 10 ppm [1] | mortality at 50 ppm [1] | mortality at 10 ppm [2] | mortality at 50 ppm [2]
